PubChem BioAssay (NCI)
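At the GI50, growth is halved. At the TGI there is no net growth.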

Assays:
Test in all cases: NCI-60 cell line screen, 384-well format
HT29 colon = test system: HT29 colon
SW-620 colon = test system: SW-620 colon
PC-3 prostate = test system: PC-3 prostate
HCT-15 colon = test system: HCT-15 colon
NCI-H522 lung = test system: NCI-H522 lung
ACHN renal = test system: ACHN renal
SK-MEL-5 melanoma = test system: SK-MEL-5 melanoma
SR leukemia = test system: SR leukemia
HOP-92 NSCLC = test system: HOP-92 NSCLC
K-562 leukemia = test system: K-562 leukemia
NCI-H226 lung = test system: NCI-H226 lung
OVCAR-4 ovarian = test system: OVCAR-4 ovarian
HCT-116 colon = test system: HCT-116 colon
TK-10 renal = test system: TK-10 renal
DU-145 prostate = test system: DU-145 prostate
M14 melanoma = test system: M14 melanoma
BT-549 breast = test system: BT-549 breast
SNB-19 CNS = test system: SNB-19 CNS
SF-268 CNS = test system: SF-268 CNS
SN12C renal = test system: SN12C renal
SK-MEL-2 melanoma = test system: SK-MEL-2 melanoma
NCI-H322M lung = test system: NCI-H322M lung
NCI-H23 lung = test system: NCI-H23 lung
COLO 205 colon = test system: COLO 205 colon
HCC-2998 colon = test system: HCC-2998 colon
SF-539 CNS = test system: SF-539 CNS
SK-MEL-28 melanoma = test system: SK-MEL-28 melanoma
KM12 colon = test system: KM12 colon
MDA-MB-435 melanoma = test system: MDA-MB-435 melanoma
CCRF-CEM leukemia = test system: CCRF-CEM leukemia
CAKI-1 renal = test system: CAKI-1 renal
OVCAR-8 ovarian = test system: OVCAR-8 ovarian
RXF 393 renal = test system: RXF 393 renal
MOLT-4 leukemia = test system: MOLT-4 leukemia
IGROV1 ovarian = test system: IGROV1 ovarian
T-47D breast = test system: T-47D breast
UACC-62 melanoma = test system: UACC-62 melanoma
OVCAR-3 ovarian = test system: OVCAR-3 ovarian
HOP-62 NSCLC = test system: HOP-62 NSCLC
A549 NSCLC = test system: A549 NSCLC
786-0 renal = test system: 786-0 renal
MALME-3M melanoma = test system: MALME-3M melanoma
A498 renal = test system: A498 renal
U251 glioblastoma = test system: U251 glioblastoma
OVCAR-5 ovarian = test system: OVCAR-5 ovarian
MCF7 breast = test system: MCF7 breast
LOX IMVI melanoma = test system: LOX IMVI melanoma
HL-60(TB) leukemia = test system: HL-60(TB) leukemia
UO-31 renal = test system: UO-31 renal
UACC-257 melanoma = test system: UACC-257 melanoma
RPMI-8226 leukemia = test system: RPMI-8226 leukemia
NCI/ADR-RES ovarian = test system: NCI/ADR-RES ovarian
MDA-MB-468 breast = test system: MDA-MB-468 breast
NCI-H460 NSCLC = test system: NCI-H460 NSCLC

Molecule `CN[C@@H](C)C(=O)N[C@H](C(=O)N1CCC[C@H]1C(=O)N[C@H]1c2ccccc2C[C@H]1OCC#CC#CCO[C@@H]1Cc2ccccc2[C@@H]1NC(=O)[C@@H]1CCCN1C(=O)[C@@H](NC(=O)[C@H](C)NC)C1CCCCC1)C1CCCCC1` has a GI50 (HT29 colon) of 1660 nM, a TGI (HT29 colon) of 3100 nM and a GI50 (SW-620 colon) of 2160 nM. The TGI (SW-620 colon) was 4300 nM, the GI50 (PC-3 prostate) was 1810 nM and the TGI (PC-3 prostate) was 3850 nM. For the same molecule, the GI50 (HCT-15 colon) was 18000 nM, the TGI (HCT-15 colon) was 31900 nM and the GI50 (NCI-H522 lung) was less than 10 nM. It also gave a TGI (NCI-H522 lung) of 1020 nM, a GI50 (ACHN renal) of 15300 nM and a TGI (ACHN renal) of 28600 nM. The GI50 (SK-MEL-5 melanoma) was less than 10 nM, the TGI (SK-MEL-5 melanoma) was 44.6 nM and the GI50 (SR leukemia) was 18.8 nM. The TGI (SR leukemia) was 1050 nM, the GI50 (HOP-92 NSCLC) was less than 10 nM and the TGI (HOP-92 NSCLC) was 641 nM. The GI50 (K-562 leukemia) was 2320 nM, the TGI (K-562 leukemia) was 6270 nM and the GI50 (NCI-H226 lung) was 6960 nM. For the same molecule, the TGI (NCI-H226 lung) was 19800 nM, the GI50 (OVCAR-4 ovarian) was less than 10 nM and the TGI (OVCAR-4 ovarian) was less than 10 nM. The GI50 (HCT-116 colon) was 1670 nM, the TGI (HCT-116 colon) was 3120 nM and the GI50 (TK-10 renal) was 14000 nM. For the same molecule, the TGI (TK-10 renal) was 27000 nM, the GI50 (DU-145 prostate) was 1040 nM and the TGI (DU-145 prostate) was 2530 nM. The GI50 (M14 melanoma) was 1900 nM, the TGI (M14 melanoma) was 3490 nM and the GI50 (BT-549 breast) was less than 10 nM. For the same molecule, the TGI (BT-549 breast) was 1920 nM, the GI50 (SNB-19 CNS) was 1560 nM and the TGI (SNB-19 CNS) was 2970 nM. The GI50 (SF-268 CNS) was 1670 nM, the TGI (SF-268 CNS) was 3040 nM and the GI50 (SN12C renal) was 2140 nM. It also gave a TGI (SN12C renal) of 3610 nM, a GI50 (SK-MEL-2 melanoma) of less than 10 nM and a TGI (SK-MEL-2 melanoma) of less than 10 nM. For the same molecule, the GI50 (NCI-H322M lung) was 2250 nM, the TGI (NCI-H322M lung) was 5310 nM and the GI50 (NCI-H23 lung) was less than 10 nM. For the same molecule, the TGI (NCI-H23 lung) was 57.6 nM, the GI50 (COLO 205 colon) was 1370 nM and the TGI (COLO 205 colon) was 2660 nM. For the same molecule, the GI50 (HCC-2998 colon) was 1620 nM, the TGI (HCC-2998 colon) was 2980 nM and the GI50 (SF-539 CNS) was 1640 nM. For the same molecule, the TGI (SF-539 CNS) was 3010 nM, the GI50 (SK-MEL-28 melanoma) was 1370 nM and the TGI (SK-MEL-28 melanoma) was 2670 nM. The GI50 (KM12 colon) was 1650 nM, the TGI (KM12 colon) was 3030 nM and the GI50 (MDA-MB-435 melanoma) was less than 10 nM. The TGI (MDA-MB-435 melanoma) was 2030 nM, the GI50 (CCRF-CEM leukemia) was less than 10 nM and the TGI (CCRF-CEM leukemia) was 1310 nM. The GI50 (CAKI-1 renal) was 15100 nM, the TGI (CAKI-1 renal) was 28400 nM and the GI50 (OVCAR-8 ovarian) was 135 nM. The TGI (OVCAR-8 ovarian) was 2220 nM, the GI50 (RXF 393 renal) was less than 10 nM and the TGI (RXF 393 renal) was less than 10 nM. It also gave a GI50 (MOLT-4 leukemia) of 1480 nM, a TGI (MOLT-4 leukemia) of 2800 nM and a GI50 (IGROV1 ovarian) of 1780 nM. The TGI (IGROV1 ovarian) was 3460 nM, the GI50 (T-47D breast) was 1730 nM and the TGI (T-47D breast) was 3170 nM. For the same molecule, the GI50 (UACC-62 melanoma) was 1650 nM, the TGI (UACC-62 melanoma) was 3010 nM and the GI50 (OVCAR-3 ovarian) was 1320 nM. For the same molecule, the TGI (OVCAR-3 ovarian) was 2640 nM, the GI50 (HOP-62 NSCLC) was 34.9 nM and the TGI (HOP-62 NSCLC) was 441 nM. It also gave a GI50 (A549 NSCLC) of 5330 nM, a TGI (A549 NSCLC) of 18600 nM and a GI50 ([…]-0 renal) of 2920 nM. The TGI (786-0 renal) was 11400 nM, the GI50 (MALME-3M melanoma) was less than 10 nM and the TGI (MALME-3M melanoma) was less than 10 nM. The GI50 (A498 renal) was 13500 nM, the TGI (A498 renal) was 26300 nM and the GI50 (U251 glioblastoma) was 1490 nM. The TGI (U251 glioblastoma) was 2820 nM, the GI50 (OVCAR-5 ovarian) was 12300 nM and the TGI (OVCAR-5 ovarian) was 24800 nM. For the same molecule, the GI50 (MCF7 breast) was 1330 nM, the TGI (MCF7 breast) was 2620 nM and the GI50 (LOX IMVI melanoma) was 2120 nM. It also gave a TGI (LOX IMVI melanoma) of 3560 nM, a GI50 (HL-60(TB) leukemia) of less than 10 nM and a TGI (HL-60(TB) leukemia) of less than 10 nM. For the same molecule, the GI50 (UO-31 renal) was 19500 nM, the TGI (UO-31 renal) was 33700 nM and the GI50 (UACC-257 melanoma) was 1520 nM. For the same molecule, the TGI (UACC-257 melanoma) was 2850 nM, the GI50 (RPMI-8226 leukemia) was less than 10 nM and the TGI (RPMI-8226 leukemia) was 1100 nM. The GI50 (NCI/ADR-RES ovarian) was 4650 nM, the TGI (NCI/ADR-RES ovarian) was 35500 nM and the GI50 (MDA-MB-468 breast) was less than 10 nM. For the same molecule, the TGI (MDA-MB-468 breast) was less than 10 nM, the GI50 (NCI-H460 NSCLC) was 1770 nM and the TGI (NCI-H460 NSCLC) was 3190 nM.
